Source: BindingDB's records for doi:10.1021/jm0704898 (Georgetown University Medical Center, 2007)
Positions of bridges follow the written chain, without caps; N, C: chain ends. Residues, ends and D or L forms follow the SMILES beside them.

Assays:
Prothrombin = Prothrombin (Bos taurus, UniProt P00735); test: Enzyme Inhibition Assay; conditions: pH 8.5; 22 °C
Protocol: (§1) The enzyme reaction was initiated by adding fluorescence peptide substrate to reaction mixture containing enzyme and test compounds. […] Hydrolysis rates were recorded in presence of six to seven different concentrations of inhibitor.

[1] = biological target: T1, Suppressor of tumorigenicity 14 protein (Homo sapiens, UniProt Q9Y5Y6); test: Enzyme Inhibition Assay; conditions: pH 8.5; 22 °C
T1 sequence (Q9Y5Y6 whole entry): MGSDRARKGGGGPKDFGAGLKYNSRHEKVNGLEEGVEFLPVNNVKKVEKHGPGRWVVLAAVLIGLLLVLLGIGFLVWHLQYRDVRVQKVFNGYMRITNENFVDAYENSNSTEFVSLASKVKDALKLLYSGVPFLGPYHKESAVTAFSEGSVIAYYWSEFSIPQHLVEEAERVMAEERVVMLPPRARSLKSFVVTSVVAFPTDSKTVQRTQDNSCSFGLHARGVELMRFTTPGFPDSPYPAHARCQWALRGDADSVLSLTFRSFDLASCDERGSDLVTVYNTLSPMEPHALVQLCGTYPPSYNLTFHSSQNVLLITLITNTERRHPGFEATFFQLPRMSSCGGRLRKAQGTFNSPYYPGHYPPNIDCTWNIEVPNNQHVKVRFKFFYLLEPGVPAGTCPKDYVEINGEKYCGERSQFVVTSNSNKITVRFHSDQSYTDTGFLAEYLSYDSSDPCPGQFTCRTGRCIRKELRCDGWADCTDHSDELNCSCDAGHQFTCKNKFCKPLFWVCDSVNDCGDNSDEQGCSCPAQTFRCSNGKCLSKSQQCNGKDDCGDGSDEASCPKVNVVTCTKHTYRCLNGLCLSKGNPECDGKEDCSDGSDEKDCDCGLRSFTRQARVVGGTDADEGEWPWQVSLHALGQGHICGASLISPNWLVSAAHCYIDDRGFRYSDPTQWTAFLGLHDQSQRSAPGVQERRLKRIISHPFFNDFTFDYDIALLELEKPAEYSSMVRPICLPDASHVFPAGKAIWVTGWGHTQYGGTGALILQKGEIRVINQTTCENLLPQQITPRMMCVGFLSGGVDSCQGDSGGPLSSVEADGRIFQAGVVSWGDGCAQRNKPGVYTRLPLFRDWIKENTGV
Protocol: as §1

SMILES	Ki (Prothrombin)	Ki [1]
CC[C@H](C)[C@@H]1NC(=O)[C@@H]2CCCN2C(=O)[C@@H]2CCCN2C(=O)[C@H]([C@@H](C)CC)NC(=O)[C@H](CO)NC(=O)[C@H](CCCCN)NC(=O)[C@H]([C@@H](C)O)NC(=O)[C@@H]2CSSC[C@H](NC1=O)C(=O)N[C@@H](Cc1ccccc1)C(=O)N1CCC[C@H]1C(=O)N[C@@H](CC(=O)O)C(=O)NCC(=O)N[C@@H](CCCCN=C(N)N)C(=O)N2 [2-[(1R,4S,7S,13S,19S,22S,25S,28S,31R,34S,40S,43S,49S)-25-(4-aminobutyl)-49-benzyl-4,19-bis[(2S)-butan-2-yl]-34-(4-carbamimidamidobutyl)-28-[(1R)-1-hydroxyethyl]-22-(hydroxymethyl)-3,6,12,18,21,24,27,30,33,36,39,42,48,51-tetradecaoxo-53,54-dithia-2,5,11,17,20,23,26,29,32,35,38,41,47,50-tetradecaazapentacyclo[29.20.4.0^{7,11}.0^{13,17}.0^{43,47}]pentapentacontan-40-yl]acetic acid]	7.63 µM	0.857 µM
CC[C@H](C)[C@@H]1NC(=O)[C@@H]2CCCN2C(=O)[C@@H]2CCCN2C(=O)[C@H]([C@@H](C)CC)NC(=O)[C@H](CO)NC(=O)[C@H](CCCCN)NC(=O)[C@H]([C@@H](C)O)NC(=O)[C@@H]2CSSC[C@H](NC1=O)C(=O)N[C@@H](Cc1ccccc1)C(=O)N1CCC[C@H]1C(=O)N[C@@H](CC(=O)O)C(=O)NCC(=O)N[C@@H](CCCNC(N)=O)C(=O)N2 [2-[(1R,4S,7S,13S,19S,22S,25S,28S,31R,34S,40S,43S,49S)-25-(4-aminobutyl)-49-benzyl-4,19-bis[(2S)-butan-2-yl]-34-[3-(carbamoylamino)propyl]-28-[(1R)-1-hydroxyethyl]-22-(hydroxymethyl)-3,6,12,18,21,24,27,30,33,36,39,42,48,51-tetradecaoxo-53,54-dithia-2,5,11,17,20,23,26,29,32,35,38,41,47,50-tetradecaazapentacyclo[29.20.4.0^{7,11}.0^{13,17}.0^{43,47}]pentapentacontan-40-yl]acetic acid]	827 µM	22.5 µM
CC[C@H](C)[C@@H]1NC(=O)[C@@H]2CCCN2C(=O)[C@@H]2CCCN2C(=O)[C@H]([C@@H](C)CC)NC(=O)[C@H](CO)NC(=O)[C@H](CCCCN)NC(=O)[C@H]([C@@H](C)O)NC(=O)[C@@H]2CSSC[C@H](NC1=O)C(=O)N[C@@H](Cc1ccccc1)C(=O)N1CCC[C@H]1C(=O)N[C@@H](CC(=O)O)C(=O)NCC(=O)N[C@@H](Cc1ccc(N=C(N)N)cc1)C(=O)N2 [2-[(1R,4S,7S,13S,19S,22S,25S,28S,31R,34S,40S,43S,49S)-25-(4-aminobutyl)-49-benzyl-4,19-bis[(2S)-butan-2-yl]-34-[(4-carbamimidamidophenyl)methyl]-28-[(1R)-1-hydroxyethyl]-22-(hydroxymethyl)-3,6,12,18,21,24,27,30,33,36,39,42,48,51-tetradecaoxo-53,54-dithia-2,5,11,17,20,23,26,29,32,35,38,41,47,50-tetradecaazapentacyclo[29.20.4.0^{7,11}.0^{13,17}.0^{43,47}]pentapentacontan-40-yl]acetic acid]	164 µM	90 µM
CC[C@H](C)[C@@H]1NC(=O)[C@H](CO)NC(=O)[C@H](CCCCN)NC(=O)[C@H]([C@@H](C)O)NC(=O)[C@@H]2CSSC[C@H](NC(=O)[C@H](CCC(N)=O)NC(=O)[C@@H]3CCCN3C(=O)[C@@H]3CCCN3C1=O)C(=O)N[C@@H](Cc1ccccc1)C(=O)N1CCC[C@H]1C(=O)N[C@@H](CC(=O)O)C(=O)NCC(=O)N[C@@H](CCCN=C(N)N)C(=O)N2 [2-[(1R,4S,7S,13S,19S,22S,25S,28S,31R,34S,40S,43S,49S)-25-(4-aminobutyl)-49-benzyl-19-[(2S)-butan-2-yl]-34-(3-carbamimidamidopropyl)-4-(2-carbamoylethyl)-28-[(1R)-1-hydroxyethyl]-22-(hydroxymethyl)-3,6,12,18,21,24,27,30,33,36,39,42,48,51-tetradecaoxo-53,54-dithia-2,5,11,17,20,23,26,29,32,35,38,41,47,50-tetradecaazapentacyclo[29.20.4.0^{7,11}.0^{13,17}.0^{43,47}]pentapentacontan-40-yl]acetic acid] (cyclo(CFPDGRCTKSIPPQ); disulfide 1-7)	> 2500 µM	2.33 µM
CC[C@H](C)[C@@H]1NC(=O)[C@@H]2CCCN2C(=O)[C@@H]2CCCN2C(=O)[C@H]([C@@H](C)CC)NC(=O)[C@H](CO)NC(=O)[C@H](CCCCCN)NC(=O)[C@H]([C@@H](C)O)NC(=O)[C@@H]2CSSC[C@H](NC1=O)C(=O)N[C@@H](Cc1ccccc1)C(=O)N1CCC[C@H]1C(=O)N[C@@H](CC(=O)O)C(=O)NCC(=O)N[C@@H](CCCN=C(N)N)C(=O)N2 [2-[(1R,4S,7S,13S,19S,22S,25S,28S,31R,34S,40S,43S,49S)-25-(5-aminopentyl)-49-benzyl-4,19-bis[(2S)-butan-2-yl]-34-(3-carbamimidamidopropyl)-28-[(1R)-1-hydroxyethyl]-22-(hydroxymethyl)-3,6,12,18,21,24,27,30,33,36,39,42,48,51-tetradecaoxo-53,54-dithia-2,5,11,17,20,23,26,29,32,35,38,41,47,50-tetradecaazapentacyclo[29.20.4.0^{7,11}.0^{13,17}.0^{43,47}]pentapentacontan-40-yl]acetic acid]	45.6 µM	28 µM
CC[C@H](C)[C@@H]1NC(=O)[C@@H]2CCCN2C(=O)[C@@H]2CCCN2C(=O)[C@H]([C@@H](C)CC)NC(=O)[C@H](CO)NC(=O)[C@H](CCCNC(=N)N)NC(=O)[C@H]([C@@H](C)O)NC(=O)[C@@H]2CSSC[C@H](NC1=O)C(=O)N[C@@H](Cc1ccccc1)C(=O)N1CCC[C@H]1C(=O)N[C@@H](CC(=O)O)C(=O)NCC(=O)N[C@@H](CCCNC(=N)N)C(=O)N2 [2-[(1R,4S,7S,13S,19S,22S,25S,28S,31R,34S,40S,43S,49S)-49-benzyl-4,19-bis[(2S)-butan-2-yl]-25,34-bis(3-carbamimidamidopropyl)-28-[(1R)-1-hydroxyethyl]-22-(hydroxymethyl)-3,6,12,18,21,24,27,30,33,36,39,42,48,51-tetradecaoxo-53,54-dithia-2,5,11,17,20,23,26,29,32,35,38,41,47,50-tetradecaazapentacyclo[29.20.4.0^{7,11}.0^{13,17}.0^{43,47}]pentapentacontan-40-yl]acetic acid]	0.86 µM	4.75 µM
CC[C@H](C)[C@@H]1NC(=O)[C@@H]2CCCN2C(=O)[C@@H]2CCCN2C(=O)[C@H]([C@@H](C)CC)NC(=O)[C@H](CO)NC(=O)[C@H](CCCCN)NC(=O)[C@H]([C@@H](C)O)NC(=O)[C@H](CO)NC(=O)[C@H](CCCN=C(N)N)NC(=O)CNC(=O)[C@H](CC(=O)O)NC(=O)[C@@H]2CCCN2C(=O)[C@H](Cc2ccccc2)NC(=O)[C@H](CO)NC1=O [2-[(1S,7S,10S,13S,16S,22S,25S,31S,34S,37S,40S,43S,46S)-40-(4-aminobutyl)-16-benzyl-10,46-bis[(2S)-butan-2-yl]-31-(3-carbamimidamidopropyl)-37-[(1R)-1-hydroxyethyl]-13,34,43-tris(hydroxymethyl)-2,8,11,14,17,23,26,29,32,35,38,41,44,47-tetradecaoxo-3,9,12,15,18,24,27,30,33,36,39,42,45,48-tetradecaazatetracyclo[46.3.0.0^{3,7}.0^{18,22}]henpentacontan-25-yl]acetic acid]	40.4 µM	107 µM
